≈ marks a conversion by molar mass, not a printed value. Calls of active or inactive are those of the source. The calls are words filed in the database; no cut-off is given here.
Key:
[1] = system: Staphylococcus epidermidis; experiment: Antibacterial activity against biofilm producer Staphylococcus epidermidis ATCC 35984 assessed as inhibition of bacterial growth incubated for 18 hrs by broth microdilution method; format: functional
Pseudomonas aeruginosa = experiment: Antibacterial activity against Pseudomonas aeruginosa ATCC 27853 assessed as inhibition of bacterial growth incubated for 18 hrs by broth microdilution method; format: functional
[2] = system: Staphylococcus epidermidis; experiment: Antibacterial activity against linezolid-resistant Staphylococcus epidermidis NIL 4399/19 assessed as inhibition of bacterial growth incubated for 18 hrs by broth microdilution method; format: functional
[3] = system: Staphylococcus epidermidis; experiment: Antibacterial activity against methicillin-susceptible Staphylococcus epidermidis ATCC 12228 assessed as inhibition of bacterial growth incubated for 18 hrs by broth microdilution method; format: functional
Staphylococcus aureus [4] = experiment: Antibacterial activity against vancomycin-intermediate Staphylococcus aureus ATCC 700699 assessed as inhibition of bacterial growth incubated for 18 hrs by broth microdilution method; format: functional
Staphylococcus aureus [5] = experiment: Antibacterial activity against methicillin-susceptible Staphylococcus aureus ATCC 25923 assessed as inhibition of bacterial growth incubated for 18 hrs by broth microdilution method; format: functional
Staphylococcus aureus [6] = experiment: Antibacterial activity against biofilm producer Staphylococcus aureus RN450 assessed as inhibition of bacterial growth incubated for 18 hrs by broth microdilution method; format: functional
Streptococcus pneumoniae = experiment: Antibacterial activity against Streptococcus pneumoniae ATCC 49619 assessed as inhibition of bacterial growth incubated for 18 hrs by broth microdilution method; format: functional
Escherichia coli = experiment: Antibacterial activity against Escherichia coli ATCC 25922 assessed as inhibition of bacterial growth incubated for 18 hrs by broth microdilution method; format: functional
Klebsiella pneumoniae = experiment: Antibacterial activity against Klebsiella pneumoniae ATCC 700603 assessed as inhibition of bacterial growth incubated for 18 hrs by broth microdilution method; format: functional
Staphylococcus aureus [7] = experiment: Antibacterial activity against methicillin-resistant Staphylococcus aureus clinical strain 19449 assessed as inhibition of bacterial growth incubated for 18 hrs by broth microdilution method; format: functional
[8] = Cytotoxicity against human MRC5 cells assessed as reduction in cell viability incubated for 24 hrs by MTT assay; format: toxicity, cell-based
[9] = Cytotoxicity against human BJ cells assessed as reduction in cell viability incubated for 24 hrs by MTT assay; format: toxicity, cell-based
Enterococcus faecium = experiment: Antibacterial activity against vancomycin-resistant Enterococcus faecium assessed as inhibition of bacterial growth incubated for 18 hrs by broth microdilution method; format: functional
Enterococcus faecalis = experiment: Antibacterial activity against Enterococcus faecalis ATCC 29212 assessed as inhibition of bacterial growth incubated for 18 hrs by broth microdilution method; format: functional
[10] = Induction of hemolysis in horse RBC at 200 uM incubated for 1 hr; format: toxicity, cell-based, Equus caballus, Erythrocyte; conditions: horse red blood cells (erythrocytes), read-out: Activity

| Compound | MIC [1] [mg/L] | Activity (Pseudomonas aeruginosa) | MIC [2] [mg/L] | MIC [3] [mg/L] | MIC (Staphylococcus aureus [4]) [mg/L] | MIC (Staphylococcus aureus [5]) [mg/L] | MIC (Staphylococcus aureus [6]) [mg/L] | MIC (Streptococcus pneumoniae) [mg/L] | Activity (Escherichia coli) | Activity (Klebsiella pneumoniae) | MIC (Staphylococcus aureus [7]) [mg/L] | IC50 at 24 h [8] [mg/L] | IC50 at 24 h [9] [mg/L] | MIC (Enterococcus faecium) [mg/L] | MIC (Enterococcus faecalis) [mg/L] | hemolysis at 1 h, 200 µM [10] [%] |
| --- | --- | --- | --- | --- | --- | --- | --- | --- | --- | --- | --- | --- | --- | --- | --- | --- |
| O=C(Nc1cccc(Cl)c1)NC1CCN(CCC(Oc2ccccc2C(F)(F)F)c2ccccc2)CC1 (racemic) | > 12.5 | inactive | 3.12 (≈ 5.87 µM) | 12.5 (≈ 23.5 µM) | 3.12 (≈ 5.87 µM) | 3.12 (≈ 5.87 µM) | 3.12 (≈ 5.87 µM) | 12.5 (≈ 23.5 µM) | inactive | inactive | 3.12 (≈ 5.87 µM) | – | – | – | – | – |
| COc1cccc2c1C(=O)c1c(O)c3c(c(O)c1C2=O)C[C@@](O)(C(=O)CO)C[C@@H]3O[C@H]1C[C@H](N)[C@H](O)[C@H](C)O1 [DOXORUBICIN] | – | – | – | – | – | – | – | – | – | – | – | 0.39 (≈ 0.718 µM) | 0.78 (≈ 1.44 µM) | – | – | – |
| O=C(Nc1cccc(Cl)c1)NC1CCN(CCC(Oc2ccccc2F)c2ccccc2)CC1 (racemic) | 12.5 (≈ 25.9 µM) | inactive | 6.25 (≈ 13 µM) | 12.5 (≈ 25.9 µM) | 12.5 (≈ 25.9 µM) | 12.5 (≈ 25.9 µM) | 6.25 (≈ 13 µM) | 12.5 (≈ 25.9 µM) | inactive | inactive | 12.5 (≈ 25.9 µM) | – | – | – | – | – |
| COc1ccccc1OC(CCN1CCC(NC(=O)Nc2cccc(Cl)c2)CC1)c1ccccc1 (stereo unspecified) | 12.5 (≈ 25.3 µM) | inactive | > 12.5 | > 12.5 | > 12.5 | > 12.5 | > 12.5 | > 12.5 | inactive | inactive | > 12.5 | – | – | – | – | – |
| O=C(Nc1cccc(Cl)c1)NC1CCN(CCC(Oc2cccc(F)c2)c2ccccc2)CC1 (racemic) | 3.12 (≈ 6.48 µM) | inactive | 6.25 (≈ 13 µM) | 6.25 (≈ 13 µM) | 6.25 (≈ 13 µM) | 6.25 (≈ 13 µM) | 3.12 (≈ 6.48 µM) | 12.5 (≈ 25.9 µM) | inactive | inactive | 6.25 (≈ 13 µM) | – | – | 1.56 (≈ 3.24 µM) | 6.25 (≈ 13 µM) | – |
| O=C(Nc1cccc(Cl)c1)NC1CCN(CCC(Oc2ccc(F)cc2)c2ccccc2)CC1 (racemic) | 3.12 (≈ 6.48 µM) | inactive | 6.25 (≈ 13 µM) | 6.25 (≈ 13 µM) | 6.25 (≈ 13 µM) | 6.25 (≈ 13 µM) | 3.12 (≈ 6.48 µM) | 12.5 (≈ 25.9 µM) | inactive | inactive | 6.25 (≈ 13 µM) | – | – | 1.56 (≈ 3.24 µM) | 6.25 (≈ 13 µM) | – |
| O=C(Nc1cccc(Cl)c1)N[C@@H]1CCN(CCC(Oc2ccc(C(F)(F)F)cc2)c2ccccc2)C1 (stereo partly specified) | 1.56 (≈ 3.01 µM) | inactive | 3.12 (≈ 6.03 µM) | 3.12 (≈ 6.03 µM) | 3.12 (≈ 6.03 µM) | 3.12 (≈ 6.03 µM) | 1.56 (≈ 3.01 µM) | 6.25 (≈ 12.1 µM) | inactive | inactive | 3.12 (≈ 6.03 µM) | 3.12 (≈ 6.03 µM) | 3.12 (≈ 6.03 µM) | 1.56 (≈ 3.01 µM) | 3.12 (≈ 6.03 µM) | 9 |
| O=C(O)c1cn(C2CC2)c2cc(N3CCNCC3)c(F)cc2c1=O [CIPROFLOXACIN] | 0.78 (≈ 2.35 µM) | – | > 12.5 | 0.78 (≈ 2.35 µM) | – | 0.78 (≈ 2.35 µM) | 0.78 (≈ 2.35 µM) | – | – | – | – | – | – | 0.78 (≈ 2.35 µM) | 0.78 (≈ 2.35 µM) | – |
| O=C(Nc1cccc(Cl)c1)NC1CCN(CCC(Oc2ccccc2)c2ccccc2)CC1 (racemic) | 3.12 (≈ 6.73 µM) | inactive | 6.25 (≈ 13.5 µM) | 6.25 (≈ 13.5 µM) | 12.5 (≈ 26.9 µM) | 6.25 (≈ 13.5 µM) | 1.56 (≈ 3.36 µM) | 12.5 (≈ 26.9 µM) | inactive | inactive | 12.5 (≈ 26.9 µM) | – | – | – | – | – |
| O=C(Nc1cccc(Cl)c1)NC1CCN(CCC(Oc2ccccc2Cl)c2ccccc2)CC1 (racemic) | 3.12 (≈ 6.27 µM) | inactive | 3.12 (≈ 6.27 µM) | 6.25 (≈ 12.5 µM) | 6.25 (≈ 12.5 µM) | 6.25 (≈ 12.5 µM) | 1.56 (≈ 3.13 µM) | 12.5 (≈ 25.1 µM) | inactive | inactive | 6.25 (≈ 12.5 µM) | – | – | 6.25 (≈ 12.5 µM) | 6.25 (≈ 12.5 µM) | – |
| O=C(Nc1cccc(Cl)c1)NC1CCN(CCC(Oc2ccc(C(F)(F)F)cc2)c2ccccc2)CC1 (stereo unspecified) | 3.12 (≈ 5.87 µM) | inactive | 3.12 (≈ 5.87 µM) | 0.78 (≈ 1.47 µM) | 6.25 (≈ 11.7 µM) | 0.78 (≈ 1.47 µM) | 3.12 (≈ 5.87 µM) | > 12.5 | inactive | inactive | 6.25 (≈ 11.7 µM) | – | – | 1.56 (≈ 2.93 µM) | 6.25 (≈ 11.7 µM) | – |

From ChEMBL document CHEMBL5346933, “Design and synthesis of novel arylurea derivatives of aryloxy(1-phenylpropyl) alicyclic diamines with antimicrobial activity against multidrug-resistant Gram-positive bacteria” (Eur J Med Chem, 2023)
